Assay results as given in the supplement of paper PMC10627819.

Columns and labels:
Assay in all cases: Bliss interaction score (quartile over a dose matrix) (fitness difference); higher = more antagonism (negative = synergy)
[1] = test system: S. pneumoniae D39V
Outline: (§1)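 Fitness was OD595 at entry into stationary phase divided by the plate's robust no-drug mean and capped at 1; single-drug fitness was inferred from combination data. The Bliss score is observed minus expected (product) fitness, summarised by quartiles over technical, biological and donor/recipient replicates.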

[2] = test system: S. aureus DSM 20231
Outline: as §1

[3] = test system: B. subtilis 168
Outline: as §1

[4] = test system: S. aureus Newman
Outline: as §1
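Note: first quartile when negative (synergy) and third quartile when positive (antagonism).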

Compound	Bliss interaction score [1]	Bliss interaction score [2]	Bliss interaction score [3]	Bliss interaction score [4]
CO/N=C(\C(=O)N[C@@H]1C(=O)N2C(C(=O)O)=C(COC(N)=O)CS[C@H]12)c1ccco1 [Cefuroxime] + CC1(C)S[C@@H]2[C@H](NC(=O)Cc3ccccc3)C(=O)N2[C@H]1C(=O)O [PenicillinG]	-0.0476	-0.154	-0.0758	0.102
N#CC(C#N)=NNc1cccc(Cl)c1 [CCCP] + Cc1ncc([N+](=O)[O-])n1CCO [Metronidazole]	0.12	0.0642	0.0615	-0.0331
CC(=O)Oc1ccccc1C(=O)O [Acetylsalicylicacid] + CN1C2=CC=CC=C2N=C3C1=CC=CC3=O [Pyocyanin]	-0.0649	-0.0748	-0.0887	-0.0562
C[C@H]1c2cccc(O)c2C(=O)C2=C(O)[C@]3(O)C(=O)C(C(N)=O)=C(O)[C@@H](N(C)C)[C@@H]3[C@@H](O)[C@@H]21 [Doxycycline] + CN[C@H](CC(C)C)C(=O)N[C@H]1C(=O)N[C@@H](CC(N)=O)C(=O)N[C@H]2C(=O)N[C@H]3C(=O)N[C@H](C(=O)N[C@H](C(=O)O)c4cc(O)cc(O)c4-c4cc3ccc4O)[C@H](O[C@H]3C[C@](C)(N)[C@@H](O)[C@H](C)O3)c3ccc(c(Cl)c3)Oc3cc2cc(c3O[C@@H]2O[C@H](CO)[C@@H](O)[C@H](O)[C@H]2O[C@H]2C[C@](C)(NCc3ccc(-c4ccc(Cl)cc4)cc3)[C@@H](O)[C@H](C)O2)Oc2ccc(cc2Cl)[C@H]1O [Oritavancin]	0.0456	-0.0271	0.0303	0.0145
N#CC(C#N)=NNc1cccc(Cl)c1 [CCCP] + CCN(CC)CCOC(=O)c1ccc(N)cc1 [Procaine]	0.0668	-0.0522	0.0328	-0.0249
CN(C)[C@@H]1C(O)=C(C(N)=O)C(=O)[C@@]2(O)C(O)=C3C(=O)c4c(O)ccc(Cl)c4[C@@](C)(O)[C@H]3C[C@@H]12 [Clortetracycline] + Cn1nnc(-c2ccc(-c3ccc(N4C[C@H](CO)OC4=O)cc3F)cn2)n1 [Tedizolid]	0.0607	-0.0502	-0.105	-0.0562
N#CC(C#N)=NNc1cccc(Cl)c1 [CCCP] + CN1C2=CC=CC=C2N=C3C1=CC=CC3=O [Pyocyanin]	-0.0451	-0.0215	-0.0772	-0.0376
CO/N=C(\C(=O)N[C@@H]1C(=O)N2C(C(=O)O)=C(COC(N)=O)CS[C@H]12)c1ccco1 [Cefuroxime] + CC[C@H]1OC(=O)[C@H](C)[C@@H](O[C@H]2C[C@@](C)(OC)[C@@H](O)[C@H](C)O2)[C@H](C)[C@@H](O[C@@H]2O[C@H](C)C[C@H](N(C)C)[C@H]2O)[C@](C)(OC)C[C@@H](C)C(=O)[C@H](C)[C@@H](O)[C@]1(C)O [Clarithromycin]	0.0629	-0.249	-0.0354	0.0734
N#CC(C#N)=NNc1cccc(Cl)c1 [CCCP] + Cc1onc(-c2ccccc2)c1C(=O)N[C@@H]1C(=O)N2[C@@H]1SC(C)(C)[C@@H]2C(=O)O [Oxacillin]	0.12	0.0876	0.0476	-0.0755
N#CC(C#N)=NNc1cccc(Cl)c1 [CCCP] + O=C(N[C@H](CO)[C@H](O)c1ccc([N+](=O)[O-])cc1)C(Cl)Cl [Chloramphenicol]	-0.0866	-0.0344	-0.0662	0.076
CC(=O)Oc1ccccc1C(=O)O [Acetylsalicylicacid] + CC(=O)NC[C@H]1CN(c2ccc(N3CCOCC3)c(F)c2)C(=O)O1 [Linezolid]	0.145	-0.0728	0.0401	0.0639
CN(C)[C@@H]1C(O)=C(C(N)=O)C(=O)[C@@]2(O)C(O)=C3C(=O)c4c(O)ccc(Cl)c4[C@@](C)(O)[C@H]3C[C@@H]12 [Clortetracycline] + CO[C@H]1/C=C/O[C@@]2(C)Oc3c(C)c(O)c4c(O)c(c(/C=N/N5CCN(C)CC5)c(O)c4c3C2=O)NC(=O)/C(C)=C\C=C\[C@H](C)[C@H](O)[C@@H](C)[C@@H](O)[C@@H](C)[C@H](OC(C)=O)[C@@H]1C [Rifampicin]	0.0664	-0.0529	-0.26	0.0541
CO/N=C(\C(=O)N[C@@H]1C(=O)N2C(C(=O)O)=C(COC(C)=O)CS[C@H]12)c1csc(N)n1 [Cefotaxime] + O=C(N[C@H](CO)[C@H](O)c1ccc([N+](=O)[O-])cc1)C(Cl)Cl [Chloramphenicol]	0.158	0.106	-0.0771	-0.0902
CC(=O)Oc1ccccc1C(=O)O [Acetylsalicylicacid] + CN(C)[C@@H]1C(O)=C(C(N)=O)C(=O)[C@@]2(O)C(O)=C3C(=O)c4c(O)ccc(Cl)c4[C@@](C)(O)[C@H]3C[C@@H]12 [Clortetracycline]	-0.0497	-0.101	-0.311	-0.0574
COc1cccc2c1C(=O)c1c(O)c3c(c(O)c1C2=O)C[C@@](O)(C(=O)CO)C[C@@H]3O[C@H]1C[C@H](N)[C@H](O)[C@H](C)O1 [Doxorubicin] + CC1(C)S[C@@H]2[C@H](NC(=O)Cc3ccccc3)C(=O)N2[C@H]1C(=O)O [PenicillinG]	0.0966	0.0914	0.0777	-0.0818
